Measured values from US8710091B2, “Imidazolidine-2,4-dione derivatives, and use thereof as a cancer drug” (Ipsen Pharma S.A.S., priority 2009, dated 2014).
pIC50: −log10 of the molar value.

Assays:
[1] = test system: LNCaP cells; test: Anti-proliferative activity on LNCaP in complete medium (WST-1); type: cell-based; details: Homo sapiens, 144 h, 144 h incubation, read-out: IC50 on the LNCaP cells in culture (concentration inhibiting cell proliferation by 50%)
Method: The anti-proliferative activity of the compounds of the present invention is determined on LNCaP in complete medium by applying the following experimental procedure:
The LNCaP cell type (ATCC, 1740) originating from a prostate carcinoma expressing the androgen receptor, this line is hormone-dependent.
Maintenance of the LNCaP line is carried out in complete culture medium: RPMI, 10% of foetal calf serum, 2 mM glutamine, 100 U/ml penicillin, 0.1 mg/ml of streptomycin and 0.01M HEPES, 1 mM sodium pyruvate, 40% of D-glucose. • Seeding the plates:
The LNCaP line is seeded at 20,000 cells/well in 90 μl of complete medium in 96-well plates coated with poly-D-lysine (Biocoat, Costar). • Treatment of the cells: 24 h after the seeding, the cells are treated with 10 μl/well of compound diluted in the culture medium. Experiments of the effect of doses of the compound are carried out on a scale of 1 nM to 100 µM. The concentrations used are the following: 1 nM/10/30/100/300/1000/3000/10,000/100,000 nM. Testosterone (SIGMA T1500) is used as a reference and tested at the same concentrations. The cells are incubated for 144 h at 37° C., 5% CO2. • Reading: On D6, 10 μL of the “WST-1 cell proliferation” reagent (Roche ref 1644807) is added to each well. After incubation for 2 hours at 37° C., 5% CO2, the absorbance at 450 nm is measured by spectrophotometry (Envision, Perkin Elmer). • Results: The experiments are carried out in duplicate and the best compounds are tested twice. […] 2. Antiproliferative Activity on LNCaP in Medium without Steroids: […]

[2] = test system: DU145 cells; test: Antiproliferative activity on DU-145 in complete medium (WST-1); type: cell-based; details: Homo sapiens, 144 h incubation, read-out: IC50 on the DU145 cells in culture (concentration inhibiting cell proliferation by 50%)
Method: The anti-proliferative activity of the compounds of the present invention is determined on DU-145 in complete medium.
Maintenance of the DU-145 line is carried out in DMEM, 10% of foetal calf serum, 2 mM of glutamine, 100 U/ml of penicillin, 0.1 mg/ml of streptomycin. • Seeding the plates: • The DU145 line is seeded at 400 or 800 cells/well in 90 μl of DMEM complete medium in 96-well plates (TPP). • Treatment of the cells: 24 h after the seeding, the cells are treated with 10 μl/well of compound diluted in the culture medium. Experiments showing the dose-effect of the compound are carried out on a scale of 1 nM to 100 μM. The concentrations used are the following: 1 nM/10/30/100/300/1000/3000/10,000/100,000 nM. The cells are incubated for 144 h at 37° C., 5% CO2. • Reading: On D6, 10 μL, of cell proliferation reagent WST-1 (Roche ref 1644807) is added to each well. After incubation for 2 to 4 hours at 37° C., 5% CO2, the absorbance at 450 nm is measured by spectrophotometry (Envision, Perkin Elmer). • Results: The experiments are carried out in duplicate and the best compounds are tested twice. […] 4. Measurement of the Disappearance of the Androgen Receptor

SMILES: CC1(C)C(=O)N(c2ccc([N+](=O)[O-])c(C(F)(F)F)c2)C(=O)N1CCCCCCCCCSCCCC(F)(F)C(F)(F)F [Example 1, 5,5-dimethyl-3-[4-nitro-3-(trifluoromethyl)phenyl]-1-{9-[(4,4,5,5,5-pentafluoropentyl)thio]nonyl}imidazolidine-2,4-dione]
- pIC50 [1]: > 5.70
- pIC50 [2]: < 5.00

SMILES: CC1(C)C(=O)N(c2ccc([N+](=O)[O-])c(C(F)(F)F)c2)C(=O)N1CCCCCCCCC[S+]([O-])CCCC(F)(F)C(F)(F)F (stereo not drawn) [Example 2, 5,5-dimethyl-3-[4-nitro-3-(trifluoromethyl)phenyl]-1-{9-[(4,4,5,5,5-pentafluoropentyl)sulphinyl]nonyl}imidazolidine-2,4-dione]
- pIC50 [2]: < 5.00

SMILES: CC1(C)C(=O)N(c2ccc([N+](=O)[O-])c(C(F)(F)F)c2)C(=O)N1CCCCCCCCCS(=O)(=O)CCCC(F)(F)C(F)(F)F [Example 3, 5,5-dimethyl-3-[4-nitro-3-(trifluoromethyl)phenyl]-1-{9-[(4,4,5,5,5-pentafluoropentyl)sulphonyl]nonyl}imidazolidine-2,4-dione]
- pIC50 [1]: > 5.70
- pIC50 [2]: < 5.00

SMILES: CC1(C)C(=O)N(c2ccc([N+](=O)[O-])c(C(F)(F)F)c2)C(=O)N1CCCCCSCCCC(F)(F)C(F)(F)F [Example 4, 5,5-dimethyl-3-[4-nitro-3-(trifluoromethyl)phenyl]-1-{5-[(4,4,5,5,5-pentafluoropentyl)thio]pentyl}imidazolidine-2,4-dione]
- pIC50 [1]: > 5.70
- pIC50 [2]: < 5.00

SMILES: CC1(C)C(=O)N(c2ccc([N+](=O)[O-])c(C(F)(F)F)c2)C(=O)N1CCCCC[S+]([O-])CCCC(F)(F)C(F)(F)F (stereo not drawn) [Example 5, 5,5-dimethyl-3-[4-nitro-3-(trifluoromethyl)phenyl]-1-{5-[(4,4,5,5,5-pentafluoropentyl)sulphinyl]pentyl}imidazolidine-2,4-dione]
- pIC50 [1]: > 5.70
- pIC50 [2]: < 5.00

SMILES: CC1(C)C(=O)N(c2ccc([N+](=O)[O-])c(C(F)(F)F)c2)C(=O)N1CCCCCCCC[S+]([O-])CCCC(F)(F)C(F)(F)F (stereo not drawn) [Example 7, 5,5-dimethyl-3-[4-nitro-3-(trifluoromethyl)phenyl]-1-{8-[(4,4,5,5,5-pentafluoropentyl)sulphinyl]octyl}imidazolidine-2,4-dione]
- pIC50 [1]: > 5.70
- pIC50 [2]: < 5.00

SMILES: CC1(C)C(=O)N(c2ccc([N+](=O)[O-])c(C(F)(F)F)c2)C(=O)N1CCCCCCCCCCSCCCC(F)(F)C(F)(F)F [Example 8, 5,5-dimethyl-3-[4-nitro-3-(trifluoromethyl)phenyl]-1-{10-[(4,4,5,5,5-pentafluoropentyl)thio]decyl}imidazolidine-2,4-dione]
- pIC50 [2]: < 5.00

SMILES: CC1(C)C(=O)N(c2ccc([N+](=O)[O-])c(C(F)(F)F)c2)C(=O)N1CCCCCCCCCC[S+]([O-])CCCC(F)(F)C(F)(F)F (stereo not drawn) [Example 9, 5,5-dimethyl-3-[4-nitro-3-(trifluoromethyl)phenyl]-1-{10-[(4,4,5,5,5-pentafluoropentyl)sulphinyl]decyl}imidazolidine-2,4-dione]
- pIC50 [2]: < 5.00

SMILES: CC1(C)C(=O)N(c2ccc([N+](=O)[O-])c(C(F)(F)F)c2)C(=O)N1CCCCCCCCCCC[S+]([O-])CCCC(F)(F)C(F)(F)F (stereo not drawn) [Example 11, 5,5-dimethyl-3-[4-nitro-3-(trifluoromethyl)phenyl]-1-{11-[(4,4,5,5,5-pentafluoropentyl)sulphinyl]undecyl}imidazolidine-2,4-dione]
- pIC50 [1]: > 5.70
- pIC50 [2]: < 5.00

SMILES: CC1(C)C(=O)N(c2ccc([N+](=O)[O-])c(C(F)(F)F)c2)C(=O)N1CCCCCCCCCSCCC(F)(F)C(F)(F)C(F)(F)C(F)(F)F [Example 14, 5,5-dimethyl-3-[4-nitro-3-(trifluoromethyl)phenyl]-1-{9-[(3,3,4,4,5,5,6,6,6-nonafluorohexyl)thio]nonyl}imidazolidine-2,4-dione]
- pIC50 [2]: < 5.00

SMILES: CC1(C)C(=O)N(c2ccc([N+](=O)[O-])c(C(F)(F)F)c2)C(=O)N1CCCCCCCCC[S+]([O-])CCC(F)(F)C(F)(F)C(F)(F)C(F)(F)F (stereo not drawn) [Example 15, 5,5-dimethyl-3-[4-nitro-3-(trifluoromethyl)phenyl]-1-{9-[(3,3,4,4,5,5,6,6,6-nonafluorohexyl)sulphinyl]nonyl}imidazolidine-2,4-dione]
- pIC50 [1]: > 5.70
- pIC50 [2]: < 5.00

SMILES: CC1(C)C(=O)N(c2ccc(N)c(C(F)(F)F)c2)C(=O)N1CCCCCCCCCSCCCC(F)(F)C(F)(F)F [Example 16, 3-[4-amino-3-(trifluoromethyl)phenyl]-5,5-dimethyl-1-{9-[(4,4,5,5,5-pentafluoropentyl)thio]nonyl}imidazolidine-2,4-dione]
- pIC50 [2]: < 5.00

SMILES: CC1(C)C(=O)N(c2ccc(C#N)c(C(F)(F)F)c2)C(=O)N1CCCCCCCCC[S+]([O-])CCCC(F)(F)C(F)(F)F (stereo not drawn) [Example 20, 4-(4,4-dimethyl-2,5-dioxo-3-{9-[(4,4,5,5,5-pentafluoropentyl)sulphinyl]nonyl}imidazolidin-1-yl)-2-(trifluoromethyl)benzonitrile]
- pIC50 [1]: > 5.70
- pIC50 [2]: < 5.00

SMILES: CC1(C)C(=O)N(c2ccc(C(N)=O)c(C(F)(F)F)c2)C(=O)N1CCCCCCCCC[S+]([O-])CCCC(F)(F)C(F)(F)F (stereo not drawn) [Example 22, 4-(4,4-dimethyl-2,5-dioxo-3-{9-[(4,4,5,5,5-pentafluoropentyl)sulphinyl]nonyl}imidazolidin-1-yl)-2-(trifluoromethyl)benzamide]
- pIC50 [1]: > 5.70
- pIC50 [2]: < 5.00

SMILES: Cc1cc(N2C(=O)N(CCCCCCCCC[S+]([O-])CCCC(F)(F)C(F)(F)F)C(C)(C)C2=O)ccc1N (stereo not drawn) [Example 26, 3-(4-amino-3-methylphenyl)-5,5-dimethyl-1-{9-[(4,4,5,5,5-pentafluoropentyl)sulphinyl]nonyl}imidazolidine-2,4-dione]
- pIC50 [2]: < 5.00

SMILES: CC1(C)C(=O)N(c2ccc([N+](=O)[O-])cc2C(F)(F)F)C(=O)N1CCCCCCCCC[S+]([O-])CCCC(F)(F)C(F)(F)F (stereo not drawn) [Example 35, 5,5-dimethyl-3-[4-nitro-2-(trifluoromethyl)phenyl]-1-{9-[(4,4,5,5,5-pentafluoropentyl)sulphinyl]nonyl}imidazolidine-2,4-dione]
- pIC50 [2]: < 5.00

SMILES: CC1(C)C(=O)N(c2ccc([N+](=O)[O-])c(C(F)(F)F)c2)C(=O)N1CCOCCOCCSCCCC(F)(F)C(F)(F)F [Example 36, 5,5-dimethyl-3-[4-nitro-3-(trifluoromethyl)phenyl]-1-[2-(2-{2-[(4,4,5,5,5-pentafluoropentyl)sulphanyl]ethoxy}ethoxy)ethyl]imidazolidine-2,4-dione]
- pIC50 [2]: < 5.00

SMILES: CC(=O)Nc1ccc(N2C(=O)N(CCOCCOCCSCCCC(F)(F)C(F)(F)F)C(C)(C)C2=O)cc1C(F)(F)F [Example 38, N-[4-{4,4-dimethyl-2,5-dioxo-3-[2-(2-{2-[(4,4,5,5,5-pentafluoropentyl)sulphanyl]ethoxy}ethoxy)ethyl]imidazolidin-1-yl}-2-(trifluoromethyl)phenyl]acetamide]
- pIC50 [2]: < 5.00

SMILES: CC(=O)Nc1ccc(N2C(=O)N(CCOCCOCC[S+]([O-])CCCC(F)(F)C(F)(F)F)C(C)(C)C2=O)cc1C(F)(F)F (stereo not drawn) [Example 39, N-[4-{4,4-dimethyl-2,5-dioxo-3-[2-(2-{2-[(4,4,5,5,5-pentafluoropentyl)sulphinyl]ethoxy}ethoxy)ethyl]imidazolidin-1-yl}-2-(trifluoromethyl)phenyl]acetamide]
- pIC50 [2]: < 5.00

SMILES: CC1(C)C(=O)N(c2ccc([N+](=O)[O-])c(C(F)(F)F)c2)C(=O)N1CCCCCCCCC/S(CCCC(F)(F)C(F)(F)F)=N/C(=O)C(F)(F)F (stereo not drawn) [Example 44, N-[(1Z)-(9-{5,5-dimethyl-3-[4-nitro-3-(trifluoromethyl)phenyl]-2,4-dioxoimidazolidin-1-yl}nonyl)(4,4,5,5,5-pentafluoropentyl)-λ^4-sulphanylidene]-2,2,2-trifluoroacetamide]
- pIC50 [2]: < 5.00

SMILES: CC1(C)C(=O)N(c2ccc([N+](=O)[O-])c(C(F)(F)F)c2)C(=O)N1CCCCCCCCCS(=N)(=O)CCCC(F)(F)C(F)(F)F (stereo not drawn) [Example 46, 5,5-dimethyl-3-[4-nitro-3-(trifluoromethyl)phenyl]-1-{9-[S-(4,4,5,5,5-pentafluoropentyl)sulphonimidoyl]nonyl}imidazolidine-2,4-dione]
- pIC50 [1]: > 5.70
